Test results as given in patent US12091402B2 (Avilar Therapeutics, Inc., priority 2021, dated 2024).
Where a SMILES comes first, the peptide text is derived from it. Bridges are numbered along the chain shown (N, C = ends). The star is where a group is joined. X3 = O=C(CCOCC(COCCC(=O)NCCOCCOCCOCCOC[C@@]12CO[C@@H](O1)[C@H](Nc1nc(Cl)ns1)[C@@H](O)[C@H]2O)NC(=O)CCCCCn1cc(CCCC(=O)*)nn1)NCCOCCOCCOCCOC[C@@]12CO[C@@H](O1)[C@H](Nc1nc(Cl)ns1)[C@@H](O)[C@H]2O; PEG4 = NCCOCCOCCOCCOCCC(=O)O

Target: T1, ASGPR (Homo sapiens, UniProt P07306)
T1 sequence (P07306 1-291): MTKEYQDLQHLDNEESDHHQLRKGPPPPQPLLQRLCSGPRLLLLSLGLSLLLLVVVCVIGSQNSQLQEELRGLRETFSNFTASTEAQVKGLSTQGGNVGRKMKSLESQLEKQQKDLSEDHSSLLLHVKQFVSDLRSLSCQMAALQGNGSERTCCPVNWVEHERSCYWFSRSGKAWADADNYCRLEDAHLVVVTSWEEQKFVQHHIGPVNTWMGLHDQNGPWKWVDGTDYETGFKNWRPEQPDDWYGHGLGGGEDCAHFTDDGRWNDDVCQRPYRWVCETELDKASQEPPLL
Experiment: Affinity to ASGPR by surface plasmon resonance (SPR)

Row | Structure (SMILES) | Kd [nM]
1 | O=C(CCOCc1ccc(-c2cccc3ccncc23)c(OCCc2ccc(-c3cccc4ccncc34)cc2)c1)NCCOCCOCCOCCOC[C@@]12CO[C@@H](O1)[C@H](Nc1cncc(C(F)(F)F)n1)[C@@H](O)[C@H]2O [Compound 56] | < 100
2 | OC[C@H]1OC[C@H](Nc2nccnc2C(F)(F)F)[C@@H](O)[C@H]1O [A101, (2R,3R,4R,5S)-2-(hydroxymethyl)-5-((3-(trifluoromethyl)pyrazin-2-yl)amino)tetrahydro-2H-pyran-3,4-diol] | 1000 to 10000
3 | OC[C@H]1OC[C@H](Nc2nc(C(F)(F)F)ccc2F)[C@@H](O)[C@H]1O [A77, (2R,3R,4R,5S)-5-((3-fluoro-6-(trifluoromethyl)pyridin-2-yl)amino)-2-(hydroxymethyl)tetrahydro-2H-pyran-3,4-diol] | < 1000
4 | OC[C@@]12CO[C@@H](O1)[C@H](Nc1cccc(C(F)(F)F)n1)[C@@H](O)[C@H]2O [A87, (1S,2R,3R,4R,5S)-1-(hydroxymethyl)-4-((6-(trifluoromethyl)pyridin-2-yl)amino)-6,8-dioxabicyclo[3.2.1]octane-2,3-diol] | < 1000
5 | CCOC(=O)c1cnc(C(F)(F)F)nc1N[C@H]1[C@H]2OC[C@](CO)(O2)[C@H](O)[C@@H]1O [A110, ethyl 4-(((1S,2R,3R,4R,5S)-2,3-dihydroxy-1-(hydroxymethyl)-6,8-dioxabicyclo[3.2.1]octan-4-yl)amino)-2-(trifluoromethyl)pyrimidine-5-carboxylate] | 1000 to 10000
6 | NC(=O)c1sc(N[C@H]2CO[C@H](CO)[C@H](O)[C@@H]2O)nc1C(F)(F)F [A54, 2-(((3S,4R,5R,6R)-4,5-dihydroxy-6-(hydroxymethyl)tetrahydro-2H-pyran-3-yl)amino)-4-(trifluoromethyl)thiazole-5-carboxamide] | > 20000
7 | O[C@@H]1[C@H](O)[C@@H](Nc2nccc(C(F)(F)F)n2)CO[C@@H]1Cn1ccnn1 [A67, (2R,3R,4R,5S)-2-((1H-1,2,3-triazol-1-yl)methyl)-5-((4-(trifluoromethyl)pyrimidin-2-yl)amino)tetrahydro-2H-pyran-3,4-diol] | < 1000
8 | C=CCO[C@H]1O[C@H](CO)[C@H](O)[C@H](O)[C@H]1N [A52, (2R,3R,4R,5R,6S)-6-(allyloxy)-5-amino-2-(hydroxymethyl)tetrahydro-2H-pyran-3,4-diol] | > 20000
9 | COCCO[C@@H]1O[C@H](CO)[C@H](O)[C@H](O)[C@H]1NC(=O)C(F)(F)F [A104, N-((2R,3R,4R,5R,6R)-4,5-dihydroxy-6-(hydroxymethyl)-2-(2-methoxyethoxy)tetrahydro-2H-pyran-3-yl)-2,2,2-trifluoroacetamide] | 1000 to 10000
10 | OC[C@H]1OC[C@H](Nc2ncnn3cccc23)[C@@H](O)[C@H]1O [A49, (2R,3R,4R,5S)-2-(hydroxymethyl)-5-(pyrrolo[2,1-f][1,2,4]triazin-4-ylamino)tetrahydro-2H-pyran-3,4-diol] | 1000 to 10000
11 | CC(=O)NC[C@H]1OC[C@H](Nc2cncc(C(F)(F)F)n2)[C@@H](O)[C@H]1O [A90, N-(((2R,3R,4R,5S)-3,4-dihydroxy-5-((6-(trifluoromethyl)pyrazin-2-yl)amino)tetrahydro-2H-pyran-2-yl)methyl)acetamide] | < 1000
12 | Cc1cc(C#N)nc(N[C@H]2[C@H]3OC[C@](CO)(O3)[C@H](O)[C@@H]2O)n1 [A38, 2-[[(1S,2R,3R,4R,5S)-2,3-dihydroxy-1-(hydroxymethyl)-6,8-dioxabicyclo[3.2.1]octan-4-yl]amino]-6-methyl-pyrimidine-4-carbonitrile] | 1000 to 10000
13 | [N-]=[N+]=NCCCCCC(=O)NC(COCCC(=O)NCCOCCOCCOCCOC[C@H]1OC[C@H](Nc2cncc(C(F)(F)F)n2)[C@@H](O)[C@H]1O)COCCC(=O)NCCOCCOCCOCCOC[C@H]1OC[C@H](Nc2cncc(C(F)(F)F)n2)[C@@H](O)[C@H]1O [A2, 3,3′-((2-(6-azidohexanamido)propane-1,3-diyl)bis(oxy))bis(N-(1-((2R,3R,4R,5S)-3,4-dihydroxy-5-((6-(trifluoromethyl)pyrazin-2-yl)amino)tetrahydro-2H-pyran-2-yl)-2,5,8,11-tetraoxatridecan-13-yl)propanamide)] | < 100
14 | CN(C)C[C@H]1OC[C@H](Nc2cncc(C(F)(F)F)n2)[C@@H](O)[C@H]1O [A126] | < 1000
15 | OC[C@@]12CO[C@@H](O1)[C@H](Nc1ncc3c(C(F)(F)F)n[nH]c3n1)[C@@H](O)[C@H]2O [A37, (1S,2R,3R,4R,5S)-1-(hydroxymethyl)-4-((3-(trifluoromethyl)-1H-pyrazolo[3,4-d]pyrimidin-6-yl)amino)-6,8-dioxabicyclo[3.2.1]octane-2,3-diol] | > 20000
16 | O=C(O)COCCOCCOCC(=O)NC(COCCC(=O)NCCOCCOCCOCCOC[C@H]1OC[C@H](Nc2nccc(C(F)(F)F)n2)[C@@H](O)[C@H]1O)COCCC(=O)NCCOCCOCCOCCOC[C@H]1OC[C@H](Nc2nccc(C(F)(F)F)n2)[C@@H](O)[C@H]1O [A23, 1-((2R,3R,4R,5S)-3,4-dihydroxy-5-((4-(trifluoromethyl)pyrimidin-2-yl)amino)tetrahydro-2H-pyran-2-yl)-20-(1-((2R,3R,4R,5S)-3,4-dihydroxy-5-((4-(trifluoromethyl)pyrimidin-2-yl)amino)tetrahydro-2H-pyran-2-yl)-15-oxo-2,5,8,11,18-pentaoxa-14-azanonadecan-19-yl)-15,22-dioxo-2,5,8,11,18,24,27,30-octaoxa-14,21-diazadotriacontan-32-oic acid] | < 100
17 | [N-]=[N+]=NC[C@@]12CO[C@@H](O1)[C@H](Nc1nc(Cl)ns1)[C@@H](O)[C@H]2O [A74, (1S,2R,3R,4R,5S)-1-(azidomethyl)-4-((3-chloro-1,2,4-thiadiazol-5-yl)amino)-6,8-dioxabicyclo[3.2.1]octane-2,3-diol] | < 1000
18 | OC[C@@]12CO[C@@H](O1)[C@H](Nc1nc3ccccc3o1)[C@@H](O)[C@H]2O [A45, (1S,2R,3R,4R,5S)-4-(benzo[d]oxazol-2-ylamino)-1-(hydroxymethyl)-6,8-dioxabicyclo[3.2.1]octane-2,3-diol] | 1000 to 10000
19 | CC(C)C[C@@H]1NC(=O)[C@@H](NC(=O)[C@@H](NC(=O)[C@H](CCC(N)=O)NC(=O)[C@H](Cc2c[nH]cn2)NC(=O)CCOCCOCCOCCOCCNC(=O)CCCc2cn(CCCCCC(=O)NC(COCCC(=O)NCCOCCOCCOCCOC[C@@]34CO[C@@H](O3)[C@H](Nc3nc(Cl)ns3)[C@@H](O)[C@H]4O)COCCC(=O)NCCOCCOCCOCCOC[C@@]34CO[C@@H](O3)[C@H](Nc3nc(Cl)ns3)[C@@H](O)[C@H]4O)nn2)C(C)C)CSSC[C@@H](C(=O)N[C@@H](Cc2ccccc2)C(=O)N[C@@H](CO)C(=O)N[C@H](C(N)=O)[C@@H](C)O)NC(=O)[C@H](C(C)C)NC(=O)[C@@H]2CCCN2C(=O)[C@H](CCCNC(=N)N)NC(=O)CNC(=O)[C@H](CCCNC(=N)N)NC(=O)[C@H](Cc2ccc(O)cc2)NC(=O)[C@H](CO)NC1=O [Compound 19] ({X3-PEG4}-HQVCLSYRGRPVCFST-NH2; disulfide 4-13) | < 100
20 | N#Cc1ccnnc1N[C@H]1[C@H]2OC[C@](CO)(O2)[C@H](O)[C@@H]1O [A39, 3-[[(1S,2R,3R,4R,5S)-2,3-dihydroxy-1-(hydroxymethyl)-6,8-dioxabicyclo[3.2.1]octan-4-yl]amino]pyridazine-4-carbonitrile] | 1000 to 10000
21 | O=C(O)COCCOCCOCCOC[C@H]1OC[C@H](Nc2nccc(C(F)(F)F)n2)[C@@H](O)[C@H]1O [A25, 1-((2R,3R,4R,5S)-3,4-dihydroxy-5-((4-(trifluoromethyl)pyrimidin-2-yl)amino)tetrahydro-2H-pyran-2-yl)-2,5,8,11-tetraoxatridecan-13-oic acid] | 100 to 500
22 | O[C@@H]1[C@H](O)[C@@H](Nc2cncc(C(F)(F)F)n2)CO[C@@H]1CN1CCCCC1 [A96, (2R,3R,4R,5S)-2-(piperidin-1-ylmethyl)-5-((6-(trifluoromethyl)pyrazin-2-yl)amino)tetrahydro-2H-pyran-3,4-diol] | 1000 to 10000
23 | O=C(O)CNC(COCCC(=O)NCCOCCOCCOCCOC[C@H]1OC[C@H](Nc2nccc(C(F)(F)F)n2)[C@@H](O)[C@H]1O)COCCC(=O)NCCOCCOCCOCCOC[C@H]1OC[C@H](Nc2nccc(C(F)(F)F)n2)[C@@H](O)[C@H]1O [A132] | < 100
24 | OC[C@H]1OC[C@H](Nc2cc(C(F)(F)F)nc(Cl)n2)[C@@H](O)[C@H]1O [A78, (2R,3R,4R,5S)-5-((2-chloro-6-(trifluoromethyl)pyrimidin-4-yl)amino)-2-(hydroxymethyl)tetrahydro-2H-pyran-3,4-diol] | > 20000
25 | NC(COCCC(=O)NCCOCCOCCOCCOC[C@H]1OC[C@H](Nc2cncc(C(F)(F)F)n2)[C@@H](O)[C@H]1O)COCCC(=O)NCCOCCOCCOCCOC[C@H]1OC[C@H](Nc2cncc(C(F)(F)F)n2)[C@@H](O)[C@H]1O [A131] | < 100
26 | C=CCO[C@H]1O[C@H](Cn2ccnn2)[C@H](O)[C@H](O)[C@H]1NC(=O)C(F)(F)F [A70, N-((2S,3R,4R,5R,6R)-6-((1H-1,2,3-triazol-1-yl)methyl)-2-(allyloxy)-4,5-dihydroxytetrahydro-2H-pyran-3-yl)-2,2,2-trifluoroacetamide] | < 1000
27 | N#Cc1cc(N[C@H]2[C@H]3OC[C@](CO)(O3)[C@H](O)[C@@H]2O)cnc1Cl [A41, 2-chloro-5-[[(1S,2R,3R,4R,5S)-2,3-dihydroxy-1-(hydroxymethyl)-6,8-dioxabicyclo[3.2.1]octan-4-yl]amino]pyridine-3-carbonitrile] | 1000 to 10000
28 | OCc1cnn(C[C@H]2OC[C@H](Nc3nccc(C(F)(F)F)n3)[C@@H](O)[C@H]2O)c1 [A62, (2R,3R,4R,5S)-2-((4-(hydroxymethyl)-1H-pyrazol-1-yl)methyl)-5-((4-(trifluoromethyl)pyrimidin-2-yl)amino)tetrahydro-2H-pyran-3,4-diol] | 1000 to 10000
